This is an account of results in ChEMBL document CHEMBL3580645, “Antiviral Activity of Flexibilane and Tigliane Diterpenoids from Stillingia lineata” (J Nat Prod, 2015).

Data set [1] can be described thus: in vitro. The following applies: monkey, Vero cells.
Data set [2] can be described thus: in vitro. The following applies: human, MT4 cells.
Data set [3] deals with Human immunodeficiency virus 1. Description: microbe, parasite or virus in culture. To be noted: Human immunodeficiency virus 1, 3B, MT4, 120 h.
The subject of the next data set is MCF7. Description: Cytotoxicity against human MCF7 cells at 1 uM after 72 hrs by MTS assay. The class given is functional. The following applies: MCF7, 72 h. A general note: Formazan colour is commonly taken as a measure of viable cells.
The test system of data set [4] is Human immunodeficiency virus 2. Description: microbe, parasite or virus in culture. The following applies: Human immunodeficiency virus 2, ISOLATE ROD, MT4, 120 h.
The nature of data set [5]: in vitro. The following applies: human, MT4 cells. This is another data set of the same source.
Data set [6] can be described thus: in vitro. The following applies: chlorocebus sabaeus, Vero cells.
The next data set concerns PC-3. Briefly: Cytotoxicity against human PC3 cells at 1 uM after 72 hrs by MTS assay. To be noted: PC-3, 72 h. It is filed as functional.
The next data set relates to HCT-116. Briefly: Cytotoxicity against human HCT116 cells at 1 uM after 72 hrs by MTS assay. It is filed as functional. To be noted: HCT-116, 72 h.
The subject of a further data set is Chikungunya virus. Briefly: microbe, parasite or virus in culture. To be noted: strain 899, Vero.
Data set [7] in a line: in vitro. The following applies: human, MT4 cells. This is another data set of the same source.
The test system of the next data set is Semliki Forest virus. Description: microbe, parasite or virus in culture. To be noted: strain Vietnam, Vero.
Another data set has as its system Sindbis virus. Description: microbe, parasite or virus in culture. To be noted: strain HRsp, Vero.
Data set [8] is described as follows: in vitro. To be noted: monkey, Vero cells. The source holds these as a separate data set.

For orientation: CC50 means the concentration that lowers cell viability or growth by half. The EC50 is the concentration needed to bring the measured effect to its halfway point. The low end stands for a more potent agent, the high end for a less potent agent. The term inhibition denotes the drop in the measured response relative to a control, in per cent.

Structures are written as SMILES.

Regarding `CCC(C)C(=O)O[C@@]12[C@H](OC(C)=O)[C@@H](C)[C@]3(O)[C@@H]4C=C(C)C(=O)[C@@H]4CC(CO)=C[C@H]3[C@@H]1C2(C)C` (stereo not given in full), the selectivity ratio is 1.4 in “in vitro [1]” and 4 in “in vitro [5]”. Further, the CC50 at 72 h in “in vitro [2]” amounted to 85 µM; in the data set “in vitro [6]”, 105 µM. In addition, the EC50 was over 85 µM in data set [3], 13 µM in data set [4] and 77 µM with Chikungunya virus. In addition, the inhibition at 1 µM in the data set with MCF7, with PC-3 and in the data set on HCT-116 was under 40% each time.
`CCC(C)C(=O)O[C@@]12[C@H](OC(C)=O)[C@@H](C)[C@@]3(O)[C@@H](C=C(CO)C[C@]4(O)C(=O)C(C)=C[C@@H]34)[C@@H]1C2(C)C` (stereo not given in full): the selectivity ratio in the data set “in vitro [1]” stood at 41; in “in vitro [7]”, 376; in “in vitro [5]” it was 949. For the same compound, the CC50 at 72 h in “in vitro [2]” was 102 µM; in the data set “in vitro [6]”, 134 µM. The EC50 with Semliki Forest virus was over 255 µM; in data set [3] it was 0.271 µM; in data set [4], 0.107 µM; in the data set on Sindbis virus it was over 255 µM; in the data set on Chikungunya virus, 3.3 µM. The inhibition at 1 µM with MCF7, in the data set on PC-3 and in the data set with HCT-116 was under 40% in each case.
With `CC/C=C/C=C/C=C\C(=O)O[C@@H]1[C@@H](C)[C@]2(O)[C@@H]3C=C(C)C(=O)[C@@H]3CC(CO)=C[C@H]2[C@@H]2C(C)(C)[C@]12OC(=O)CCC`, the selectivity ratio amounted to 5.1 in “in vitro [1]”, 36 in the data set “in vitro [7]”, 1.4 in “in vitro [8]” and 33 in “in vitro [5]”. For the same compound, the figures for the CC50 at 72 h in “in vitro [2]” and in “in vitro [6]” were 8.4 µM and 7.1 µM, respectively. Moreover, the concentration giving a half-maximal response (EC50) in the data set with Semliki Forest virus was over 177 µM; in data set [3], 0.233 µM; in data set [4] it was 0.174 µM; in the data set with Sindbis virus it was 5 µM; in the data set with Chikungunya virus it was 1.4 µM. Also, the inhibition at 1 µM with MCF7, in the data set on PC-3 and in the data set with HCT-116 was under 40% in each case.
For the compound `CCCCCCCCC(=O)/C=C/C=C/C=C/C(=O)O[C@@]12C[C@@H](C)[C@@]3(O)[C@@H](C=C(CO)C[C@]4(O)C(=O)C(C)=C[C@@H]34)[C@@H]1C2(C)C`, the selectivity ratio amounted to 5.9 in the data set “in vitro [1]”, 299 in the data set “in vitro [7]”, 1.2 in the data set “in vitro [8]” and 1430 in the data set “in vitro [5]”. Also, the CC50 at 72 h in the data set “in vitro [2]” and in “in vitro [6]” was 13 µM each time. The EC50 was over 168 µM in the data set on Semliki Forest virus; 0.043 µM in data set [3]; 0.018 µM in [4]; 11 µM with Sindbis virus; 2.2 µM in the data set with Chikungunya virus. Also, the inhibition at 1 µM with MCF7, with PC-3 and in the data set with HCT-116 was under 40% throughout.
Consider `CCC(C)C(=O)O[C@@]12C[C@@H](C)[C@@]3(O)[C@@H](C=C(CO)C[C@]4(O)C(=O)C(C)=C[C@@H]34)[C@@H]1C2(C)C` (stereo not given in full), for which the selectivity ratio in “in vitro [1]” was over 240; in “in vitro [7]” it was 899; in the data set “in vitro [5]”, 2060. Further, the CC50 at 72 h is 116 µM in “in vitro [2]” and over 289 µM in the data set “in vitro [6]”. Further, the EC50 with Semliki Forest virus was over 289 µM; in data set [3], 0.129 µM; in data set [4] it was 0.056 µM; in the data set with Sindbis virus, over 289 µM; in the data set with Chikungunya virus it was 1.2 µM. For the same compound, the inhibition at 1 µM with MCF7, in the data set on PC-3 and in the data set on HCT-116 was under 40% throughout.
For the compound `CCN(CC)CCCC(C)Nc1ccnc2cc(Cl)ccc12` (stereo not given) [CHLOROQUINE], in “in vitro [6]”, the CC50 at 72 h was 89 µM.
Regarding `O=c1[nH]cnc2c1ncn2[C@H]1CC[C@@H](CO)O1` [DIDANOSINE], the results for the selectivity ratio in “in vitro [7]” and in the data set “in vitro [5]” were over 4.6 and over 5.2, respectively. Besides, in “in vitro [2]”, the CC50 at 72 h was over 50 µM. For the same compound, the figures for the EC50 in data set [3] and in data set [4] were 10.8 µM and 9.6 µM, respectively.
As to `Nc1ccn([C@@H]2CS[C@H](CO)O2)c(=O)n1` [LAMIVUDINE], the selectivity ratio was over 22 in the data set “in vitro [7]” and over 5.6 in the data set “in vitro [5]”. This compound yielded a CC50 at 72 h in the data set “in vitro [2]” of over 87 µM. For the same compound, the EC50 in [3] came to 3.9 µM; in [4], 15.5 µM.
As to `Cc1ccnc2c1NC(=O)c1cccnc1N2C1CC1` [NEVIRAPINE], the selectivity ratio in “in vitro [7]” amounted to 148. In “in vitro [2]”, this compound gave a cytotoxic concentration (CC50) at 72 h of over 15 µM. Also, the EC50 in data set [3] was 0.01 µM; in [4], over 15 µM.
As to `Cc1cn([C@H]2C[C@H](N=[N+]=[N-])[C@@H](CO)O2)c(=O)[nH]c1=O` [ZIDOVUDINE], the CC50 at 72 h in “in vitro [2]” is over 25 µM.
